Legend:
Experiment in all cases: ITC
[1] = molecular target: T1, K1 LBD
T1 construct: source species and locus only in SI

[2] = molecular target: T2, C1 LBD
T2 construct: source species and locus only in SI
Excerpt: ITC on C1 LBD | The binding of L-lactate to the K1 and C1 LBDs

[3] = molecular target: T3, B9 LBD
T3 construct: source species and locus only in SI
Excerpt: ITC on B9 LBD | The binding of L-threonine to the B9 LBD

[4] = molecular target: T4, B6 LBD; design: species or system Catenibacterium mitsuokai
T4 construct: locus only in SI
Excerpt: ITC on B6 LBD | the binding of indole to the B6 LBD were confirmed by isothermal titration calorimetry

[5] = molecular target: T5, D8 LBD; settings: membrane-distal module
T5 construct: D8-dm = residues 33-179, D8-pm = residues 153-280; source species and locus only in SI

[6] = molecular target: T6, J6 LBD
T6 construct: source species and locus only in SI
Excerpt: ITC on J6 LBD | ethylamine and methylamine to the J6 LBD was confirmed by ITC

## C[C@@H](O)C(=O)O [D-lactate]
[1]
  Kd: 66.1 ± 10.7 µM

## C[C@H](O)C(=O)O [L-lactate]
[1]
  Kd: 16 ± 0.56 µM
[2]
  Kd: 26.8 ± 0.91 µM

## C[C@@H](O)[C@H](N)C(=O)O [L-threonine]
[3]
  Kd: 1300 ± 200 nM

## c1ccc2[nH]ccc2c1 [indole]
[4]
  Kd: 35.6 ± 7.02 µM

## C=C(CC(=O)O)C(=O)O [itaconate]
[5]
  Kd: 9.6 ± 0.9 µM

## O=C(O)/C=C\C(=O)O [maleate]
[5]
  Kd: 7.7 ± 0.41 µM

## CN [methylamine]
[6]
  Kd: 242 ± 22 µM

## O=C(O)CCC(=O)O [succinate]
[5]
  Kd: 1.7 ± 0.11 µM

Reference: PMC12415202, “Specificities of chemosensory receptors in the human gut microbiota” (Proceedings of the National Academy of Sciences of the …, 2025)
